# Results taken from patent US20170226503A1, “Methods for Sequential Screening with Co-Culture Based Detection of Metagenomic Elements Conferring Heterologous Metabolite Secretion” (MetaMixis Biologics, Inc., priority 2014, published 2017).
# Test system: MIE p10c20
# Experiment: Validation of MIE p10c20 from retrofitted metagenomic library (fluorescence)
# Assay type: cell-based
# Settings: 1 mM
# Description: A metagenomic DNA library was “retroffited” as described herein and shown in FIG. 15 to identify a metabolite induced element (MIE). In FIG. 16 fluoresence plots are shown for a retroffited metagenomic library assayed for fluorescence emitted by the fluorescent marker. […] Induction was by a pool of pCoumaric acid, Vanillic acid and Vanillin. The circled data point that represents a fosmid clone harboring a candidate MIE (p10c20) which was selected for further investigation.
smiles,measurement,value
O=C(O)/C=C/c1ccc(O)cc1 [pCoumaric acid],responsiveness of MIE p10c20,most responsive
